# Experimental data taken from the supplement of paper PMC6004109.
# Key:
# Settings in all cases: temperature: 37 °C
# [1] = test system: Candida glabrata ZIM 2382 (RPMI); assay: FICI minimum (fractional inhibitory concentration index, Loewe) (dimensionless); higher = less synergy / more antagonism
# Procedure: (§1)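 CLSI M27-A3 checkerboard broth microdilution of an immunomodulatory drug (or amoxicillin) combined with an antifungal against S. cerevisiae and C. glabrata isolates. Growth was read as OD600 after incubation at 37 °C (48 h for the reported MICs). Reported quantities are the FICI (Loewe: MIC50 for azoles and immunomodulators, MIC90 for AMB; ≤0.5 synergy, ≥4 antagonism), as minimum and maximum over the surface, and the Bliss-independence sum of statistically significant ΔE (positive = synergy). Clinical isolates were tested in RPMI; C. glabrata ATCC 2001 and its pdr1Δ mutant were tested in YPD.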
# [2] = test system: Candida glabrata ZIM 2389 (RPMI); assay: as above
# Procedure: as §1
# [3] = test system: Candida glabrata ZIM 2344 (RPMI); assay: FICI maximum (fractional inhibitory concentration index, Loewe) (dimensionless); higher = less synergy / more antagonism
# Procedure: as §1
# [4] = test system: Candida glabrata ZIM 2365 (RPMI); assay: as above
# Procedure: as §1
# [5] = test system: Candida glabrata ZIM 2369 (RPMI); assay: as above
# Procedure: as §1
# [6] = test system: Candida glabrata ZIM 2382 (RPMI); assay: as above
# Procedure: as §1
# [7] = test system: Candida glabrata ZIM 2385 (RPMI); assay: as above
# Procedure: as §1
# [8] = test system: Candida glabrata ZIM 2389 (RPMI); assay: as above
# Procedure: as §1
# [9] = test system: Saccharomyces cerevisiae ZIM 2247 (RPMI); assay: as above
# Procedure: as §1
# [10] = test system: Saccharomyces cerevisiae ZIM 2255 (RPMI); assay: as above
# Procedure: as §1
# [11] = test system: Saccharomyces cerevisiae ZIM 2260 (RPMI); assay: as above
# Procedure: as §1
# [12] = test system: Saccharomyces cerevisiae ZIM 2269 (RPMI); assay: as above
# Procedure: as §1
# [13] = test system: Saccharomyces cerevisiae ZIM 2558 (RPMI); assay: as above
# Procedure: as §1
# [14] = test system: Saccharomyces cerevisiae ZIM 2566 (RPMI); assay: as above
# Procedure: as §1
# [15] = test system: Candida glabrata ZIM 2344 (RPMI); assay: Bliss independence sum of statistically significant ΔE (measured minus predicted growth inhibition) over checkerboard surface (fraction (sum of ΔE; 1 = 100%)); higher = more synergy
# [16] = test system: Candida glabrata ZIM 2365 (RPMI); assay: as above
# [17] = test system: Candida glabrata ZIM 2369 (RPMI); assay: as above
# [18] = test system: Candida glabrata ZIM 2382 (RPMI); assay: as above
# [19] = test system: Candida glabrata ZIM 2385 (RPMI); assay: as above
# [20] = test system: Candida glabrata ZIM 2389 (RPMI); assay: as above
# [21] = test system: Saccharomyces cerevisiae ZIM 2247 (RPMI); assay: as above
# [22] = test system: Saccharomyces cerevisiae ZIM 2255 (RPMI); assay: as above
# [23] = test system: Saccharomyces cerevisiae ZIM 2260 (RPMI); assay: as above
# [24] = test system: Saccharomyces cerevisiae ZIM 2269 (RPMI); assay: as above
# [25] = test system: Saccharomyces cerevisiae ZIM 2558 (RPMI); assay: as above
# [26] = test system: Saccharomyces cerevisiae ZIM 2566 (RPMI); assay: as above
SMILES,FICI minimum [1],FICI minimum [2],FICI maximum [3],FICI maximum [4],FICI maximum [5],FICI maximum [6],FICI maximum [7],FICI maximum [8],FICI maximum [9],FICI maximum [10],FICI maximum [11],FICI maximum [12],FICI maximum [13],FICI maximum [14],Bliss independence sum [15],Bliss independence sum [16],Bliss independence sum [17],Bliss independence sum [18],Bliss independence sum [19],Bliss independence sum [20],Bliss independence sum [21],Bliss independence sum [22],Bliss independence sum [23],Bliss independence sum [24],Bliss independence sum [25],Bliss independence sum [26]
CC1(C)S[C@@H]2[C@H](NC(=O)[C@H](N)c3ccc(O)cc3)C(=O)N2[C@H]1C(=O)O [amoxicillin] + C[C@@H]1[C@H](O)[C@@H](C)/C=C/C=C/C=C/C=C/C=C/C=C/C=C/[C@H](O[C@@H]2O[C@H](C)[C@@H](O)[C@H](N)[C@@H]2O)C[C@@H]2O[C@](O)(C[C@@H](O)C[C@@H](O)[C@H](O)CC[C@@H](O)C[C@@H](O)CC(=O)O[C@H]1C)C[C@H](O)[C@H]2C(=O)O [amphotericin B],0.508,0.508,1.25,1.25,1.25,1.25,1.25,1.25,1.25,1.25,1.25,1.25,8.78,4.25,1.9,2.12,-0.462,0.631,2.19,2.34,-2.91,-2.26,0.295,2.97,-2.25,-0.244
CC1(C)S[C@@H]2[C@H](NC(=O)[C@H](N)c3ccc(O)cc3)C(=O)N2[C@H]1C(=O)O [amoxicillin] + CCC(C)n1ncn(-c2ccc(N3CCN(c4ccc(OCC5COC(Cn6cncn6)(c6ccc(Cl)cc6Cl)O5)cc4)CC3)cc2)c1=O [itraconazole],1.01,1.01,0.375,1.25,1.25,2.25,1.25,1.25,1.25,1.25,1.25,1.25,0.75,2.12,3,3.78,0.313,-0.629,-0.894,0.79,-3.04,0.234,0.613,0.212,0.394,-0.787
CN(Cc1cnc2nc(N)nc(N)c2n1)c1ccc(C(=O)N[C@@H](CCC(=O)O)C(=O)O)cc1 [methotrexate] + CCC(C)n1ncn(-c2ccc(N3CCN(c4ccc(OCC5COC(Cn6cncn6)(c6ccc(Cl)cc6Cl)O5)cc4)CC3)cc2)c1=O [itraconazole],1,1,1.16,1.16,1.16,2.16,2.16,2.04,1.16,1.08,2.04,1.16,1.08,1.16,-0.688,2.18,-0.495,-1.18,-0.777,0.179,0.35,1.41,-0.71,-0.796,1.01,1.34
CN(Cc1cnc2nc(N)nc(N)c2n1)c1ccc(C(=O)N[C@@H](CCC(=O)O)C(=O)O)cc1 [methotrexate] + C[C@@H]1[C@H](O)[C@@H](C)/C=C/C=C/C=C/C=C/C=C/C=C/C=C/[C@H](O[C@@H]2O[C@H](C)[C@@H](O)[C@H](N)[C@@H]2O)C[C@@H]2O[C@](O)(C[C@@H](O)C[C@@H](O)[C@H](O)CC[C@@H](O)C[C@@H](O)CC(=O)O[C@H]1C)C[C@H](O)[C@H]2C(=O)O [amphotericin B],1,1,1.08,1.16,1.16,1.16,2.16,1.16,1.16,1.5,1.16,1.16,2.16,1.16,1.26,-0.0967,0.0762,-0.569,-1.71,-2.52,-2.39,0.262,2,0.225,-1.12,-3.15
